Test results from US5399575A, “Pyridine compounds which have useful pharmaceutical activity” (Boehringer Mannheim GmbH, priority 1990, dated 1995).

Each compound was assayed on passive sensitised guinea pig lung parenchyma strips (assay: Inhibition of the antigen-caused constriction of passive sensitised guinea pig lung parenchyma strips in vitro (organ bath)). Settings: Cavia porcellus; concentration 10 μM; ovalbumin-caused constriction, 20 min pre-incubation at 37° C.; % reduction of constriction amplitude vs untreated control constrictions; read-out: superfusion inhibition (%).
Assay type: cell-based
Experimental: Inhibition of the antigen-caused constriction of passive sensitised guinea pig lung parenchyma strips in vitro (organ bath)
For the in vitro investigation of the compounds according to the invention, the inhibition of the antigen-caused constriction of passive sensitised guinea pig lung parenchyma strips was measured, as described in the following:
Pribright white guinea pigs were stunned by a neck blow and exsanguinated. The lungs were rinsed substantially free of blood in situ with Krebs buffer, pH 7.4.
Subsequently, the lungs were removed, cut up into strips (about 20×4×4 mm) and the strips passively sensitised for one hour at room temperature with a 1:50 dilution of a homologous anti-ovalbumin antiserum and then washed 1× with Krebs buffer.
The antiserum was previously produced according to DAVIES in guinea pigs of the same strain by repeated injection of ovalbumin (2×crystallised) with addition of complete Freund's adjuvant.
Until its use, the antiserum was stored at -18° C. undiluted.
Subsequently, the lung strips were suspended individually on an isometric measurement sensor with an initial tension of 1.2 g.
Thereafter, the baths were filled with Krebs buffer and continously gassed at 37° C. with O2 (95%) and CO2 (5%). The constrictions of the lung strips were recorded on a recorder via an amplifier.
After 30 minutes acclimatisation phase, histamine control spasms were produced for the recognition of the reaction ability of the organ pieces, washed, subsequently the test substance pre-incubated at 37° C. for 20 minutes and thereafter the ovalbumin-caused constriction initiated.
The inhibition actions of the compounds according to the invention were expressed as percentage reduction of the constriction amplitude of the "samples with test substance" in relationship to the "untreated control constrictions".
`O=C(O)c1ccccc1SCCCOc1ccc(CCc2ccncc2)cc1` [Example 14, 2-{3-{4-[2-(4-Pyridinyl)-ethyl]-phenoxy}-propylthio}-benzoic acid] showed an inhibition at 10 µM of 56%.
For `C(=Cc1ccc(OCCCCc2nnn[nH]2)cc1)c1ccncc1` [Example 15, 5-{4-{4-[2-(4-Pyridinyl)-ethenyl]-phenoxy}butyl}-1H-tetrazole], the inhibition at 10 µM was 56%.
Compound `O=C(CCCCOc1ccccc1CCc1ccccn1)Nc1nnn[nH]1` [Example 18h, 5-{2-[2-(2-pyridinyl)-ethyl]-phenoxy}-valeric acid N-(1H-tetrazol-5-yl)-amide] has an inhibition at 10 µM of 53%.
Work on `O=C(CCCOc1ccc(CCc2ccncc2)cc1)Nc1nnn[nH]1` [Example 18b] yielded an inhibition at 10 µM of 32%.
`O=C(CCCCOc1ccccc1C=Cc1ccccn1)Nc1nnn[nH]1` [Example 18c, 5-{2-[2-(2-pyridinyl)-ethenyl]-phenoxy}-valeric acid N-(1H-tetrazol-5-yl)-amide] was tested, and the inhibition at 10 µM was 33%.
`O=C(O)c1ccccc1SCCCCOc1ccc(C=Cc2ccncc2)cc1` [Example 12, 2-{4-{4-[2-(4-Pyridinyl)-ethenyl]-phenoxy}-butylthio}-benzoic acid] showed an inhibition at 10 µM of 42%.
